Experimental data reported in patent US11986493B2 (University of Pittsburgh—Of the Commonwealth System of …, priority 2013, dated 2024).

Tested on: subjects with pulmonary hypertension
Experiment: Systemic blood pressure (noninvasive) and heart rate monitoring during the study
Method: During the study right heart/pulmonary artery hemodynamics were measured as well as noninvasive systemic blood pressure monitoring and simultaneous RV echocardiography. Subjects were tested for the changes in pulmonary vascular resistance (PVR) measured by right heart catheterization and using thermodilution cardiac output measurement at time zero, at times 15, 30 and 45 minutes after completion of each nebulization dose.
Subjects were monitored closely for changes in blood pressure during the study. […] Subjects were continued to be monitored closely every 10 minutes for 2 hours.

[1] = Patient 1, nitrite 45 mg inhaled, 15 min
[2] = Patient 1, nitrite 45 mg inhaled, 30 min
[3] = Patient 1, nitrite 45 mg inhaled, 45 min
[4] = Patient 1, nitrite 45 mg inhaled, 60 min
[5] = Patient 1, nitrite 90 mg inhaled, 15 min
[6] = Patient 1, nitrite 90 mg inhaled, 30 min
[7] = Patient 1, nitrite 90 mg inhaled, 45 min
[8] = Patient 1, nitrite 90 mg inhaled, 60 min
[9] = Patient 2, nitrite 45 mg inhaled, 15 min
[10] = Patient 2, nitrite 45 mg inhaled, 30 min
[11] = Patient 2, nitrite 45 mg inhaled, 45 min
[12] = Patient 2, nitrite 45 mg inhaled, 60 min
[13] = Patient 2, nitrite 90 mg inhaled, 15 min
[14] = Patient 2, nitrite 90 mg inhaled, 30 min
[15] = Patient 2, nitrite 90 mg inhaled, 45 min
[16] = Patient 2, nitrite 90 mg inhaled, 60 min
[17] = Patient 3, nitrite 45 mg inhaled, 15 min
[18] = Patient 3, nitrite 45 mg inhaled, 30 min
[19] = Patient 3, nitrite 45 mg inhaled, 45 min
[20] = Patient 3, nitrite 45 mg inhaled, 60 min
[21] = Patient 3, nitrite 90 mg inhaled, 15 min
[22] = Patient 3, nitrite 90 mg inhaled, 30 min
[23] = Patient 3, nitrite 90 mg inhaled, 45 min
[24] = Patient 3, nitrite 90 mg inhaled, 60 min
[25] = Patient 4, nitrite 45 mg inhaled, 15 min
[26] = Patient 4, nitrite 45 mg inhaled, 30 min
[27] = Patient 4, nitrite 45 mg inhaled, 45 min
[28] = Patient 4, nitrite 45 mg inhaled, 60 min
[29] = Patient 4, nitrite 90 mg inhaled, 15 min
[30] = Patient 4, nitrite 90 mg inhaled, 30 min
[31] = Patient 4, nitrite 90 mg inhaled, 45 min
[32] = Patient 4, nitrite 90 mg inhaled, 60 min
[33] = Patient 5, nitrite 45 mg inhaled, 15 min
[34] = Patient 5, nitrite 45 mg inhaled, 30 min
[35] = Patient 5, nitrite 45 mg inhaled, 45 min
[36] = Patient 5, nitrite 45 mg inhaled, 60 min
[37] = Patient 5, nitrite 90 mg inhaled, 15 min
[38] = Patient 5, nitrite 90 mg inhaled, 30 min
[39] = Patient 5, nitrite 90 mg inhaled, 45 min
[40] = Patient 5, nitrite 90 mg inhaled, 60 min
[41] = at the doses tested (45 mg and 90 mg inhaled)

O=NO [nitrite, sodium nitrite]
HR [1]: 81
Systemic DBP [1]: 71
Systemic SBP [1]: 109
Systemic mBP [1]: 83.68
HR [2]: 83
Systemic DBP [2]: 78
Systemic SBP [2]: 108
Systemic mBP [2]: 88.01
HR [3]: 82
Systemic DBP [3]: 72
Systemic SBP [3]: 109
Systemic mBP [3]: 84.34
HR [4]: 88
Systemic DBP [4]: 78
Systemic SBP [4]: 108
Systemic mBP [4]: 88.01
HR [5]: 93
Systemic DBP [5]: 67
Systemic SBP [5]: 97
Systemic mBP [5]: 77.01
HR [6]: 93
Systemic DBP [6]: 66
Systemic SBP [6]: 102
Systemic mBP [6]: 78.01
HR [7]: 94
Systemic DBP [7]: 62
Systemic SBP [7]: 102
Systemic mBP [7]: 75.34
HR [8]: 92
Systemic DBP [8]: 67
Systemic SBP [8]: 105
Systemic mBP [8]: 79.68
HR [9]: 74
Systemic DBP [9]: 82
Systemic SBP [9]: 136
Systemic mBP [9]: 100.01
HR [10]: 73
Systemic DBP [10]: 75
Systemic SBP [10]: 137
Systemic mBP [10]: 95.68
HR [11]: 75
Systemic DBP [11]: 75
Systemic SBP [11]: 137
Systemic mBP [11]: 95.68
HR [12]: 77
Systemic DBP [12]: 68
Systemic SBP [12]: 132
Systemic mBP [12]: 89.34
HR [13]: 74
Systemic DBP [13]: 76
Systemic SBP [13]: 142
Systemic mBP [13]: 98.01
HR [14]: 74
Systemic DBP [14]: 77
Systemic SBP [14]: 132
Systemic mBP [14]: 95.34
HR [15]: 76
Systemic DBP [15]: 81
Systemic SBP [15]: 141
Systemic mBP [15]: 101.01
HR [16]: 77
Systemic DBP [16]: 78
Systemic SBP [16]: 143
Systemic mBP [16]: 99.68
HR [17]: 63
Systemic DBP [17]: 55
Systemic SBP [17]: 96
Systemic mBP [17]: 68.67
HR [18]: 51
Systemic DBP [18]: 56
Systemic SBP [18]: 95
Systemic mBP [18]: 69.01
HR [19]: 67
Systemic DBP [19]: 59
Systemic SBP [19]: 92
Systemic mBP [19]: 70.01
HR [20]: 63
Systemic DBP [20]: 52
Systemic SBP [20]: 106
Systemic mBP [20]: 70.01
HR [21]: 68
Systemic DBP [21]: 54
Systemic SBP [21]: 100
Systemic mBP [21]: 69.34
HR [22]: 71
Systemic DBP [22]: 58
Systemic SBP [22]: 102
Systemic mBP [22]: 72.68
HR [23]: 70
Systemic DBP [23]: 54
Systemic SBP [23]: 100
Systemic mBP [23]: 69.34
HR [24]: 72
Systemic DBP [24]: 59
Systemic SBP [24]: 103
Systemic mBP [24]: 73.68
HR [25]: 72
Systemic DBP [25]: 73
Systemic SBP [25]: 137
Systemic mBP [25]: 94.34
HR [26]: 69
Systemic DBP [26]: 77
Systemic SBP [26]: 134
Systemic mBP [26]: 96.01
HR [27]: 72
Systemic DBP [27]: 71
Systemic SBP [27]: 134
Systemic mBP [27]: 92.01
HR [28]: 71
Systemic DBP [28]: 71
Systemic SBP [28]: 131
Systemic mBP [28]: 91.01
HR [29]: 61
Systemic DBP [29]: 64
Systemic SBP [29]: 120
Systemic mBP [29]: 82.68
HR [30]: 70
Systemic DBP [30]: 68
Systemic SBP [30]: 126
Systemic mBP [30]: 87.34
HR [31]: 63
Systemic DBP [31]: 63
Systemic SBP [31]: 121
Systemic mBP [31]: 82.34
HR [32]: 63
Systemic DBP [32]: 66
Systemic SBP [32]: 129
Systemic mBP [32]: 87.01
HR [33]: 58
Systemic DBP [33]: 49
Systemic SBP [33]: 91
Systemic mBP [33]: 63.01
HR [34]: 53
Systemic DBP [34]: 52
Systemic SBP [34]: 95
Systemic mBP [34]: 66.34
HR [35]: 65
Systemic DBP [35]: 52
Systemic SBP [35]: 98
Systemic mBP [35]: 67.34
HR [36]: 62
Systemic DBP [36]: 45
Systemic SBP [36]: 95
Systemic mBP [36]: 61.67
HR [37]: 59
Systemic DBP [37]: 53
Systemic SBP [37]: 100
Systemic mBP [37]: 68.68
HR [38]: 61
Systemic DBP [38]: 49
Systemic SBP [38]: 102
Systemic mBP [38]: 66.68
HR [39]: 65
Systemic DBP [39]: 47
Systemic SBP [39]: 94
Systemic mBP [39]: 62.67
HR [40]: 58
Systemic DBP [40]: 54
Systemic SBP [40]: 107
Systemic mBP [40]: 71.68
HR (Patient 6, nitrite 45, 15 min): 95
Systemic DBP (Patient 6, nitrite 45, 15 min): 58
Systemic SBP (Patient 6, nitrite 45, 15 min): 110
Systemic mBP (Patient 6, nitrite 45, 15 min): 75.3426
HR (Patient 6, nitrite 45, 30 min): 99
Systemic DBP (Patient 6, nitrite 45, 30 min): 65
Systemic SBP (Patient 6, nitrite 45, 30 min): 127
Systemic mBP (Patient 6, nitrite 45, 30 min): 85.6773
HR (Patient 6, nitrite 45, 45 min): 96
Systemic DBP (Patient 6, nitrite 45, 45 min): 66
Systemic SBP (Patient 6, nitrite 45, 45 min): 126
Systemic mBP (Patient 6, nitrite 45, 45 min): 86.0106
HR (Patient 6, nitrite 45, 60 min): 97
Systemic DBP (Patient 6, nitrite 45, 60 min): 65
Systemic SBP (Patient 6, nitrite 45, 60 min): 128
Systemic mBP (Patient 6, nitrite 45, 60 min): 86.0107
HR (Patient 6, nitrite 90, 15 min): 93
Systemic DBP (Patient 6, nitrite 90, 15 min): 59
Systemic SBP (Patient 6, nitrite 90, 15 min): 112
Systemic mBP (Patient 6, nitrite 90, 15 min): 76.6761
HR (Patient 6, nitrite 90, 30 min): 95
Systemic DBP (Patient 6, nitrite 90, 30 min): 66
Systemic SBP (Patient 6, nitrite 90, 30 min): 110
Systemic mBP (Patient 6, nitrite 90, 30 min): 80.6762
HR (Patient 6, nitrite 90, 45 min): 90
Systemic DBP (Patient 6, nitrite 90, 45 min): 60
Systemic SBP (Patient 6, nitrite 90, 45 min): 114
Systemic mBP (Patient 6, nitrite 90, 45 min): 78.0096
HR (Patient 6, nitrite 90, 60 min): 91
Systemic DBP (Patient 6, nitrite 90, 60 min): 58
Systemic SBP (Patient 6, nitrite 90, 60 min): 111
Systemic mBP (Patient 6, nitrite 90, 60 min): 75.676
heart rate [41]: does not significantly affect
systemic blood pressure [41]: does not significantly affect
